Results reported in patent publication US8030498B2, “Benzoylpyrazole compounds and herbicides containing them” (Ishihara Sangyo Kaisha, Ltd., priority 2005, dated 2011).

Legend:
rice (Oryza sativa L.) = assay: Test Example 1: foliar treatment, growth inhibition rate, rice; format: in vivo; conditions: visually observed 17th to 23rd day after application
Summary of the method: (§1)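 Plants grown in upland soil in pots were sprayed on the foliage at set leaf stages (corn 2.0–3.5, greenfoxtail 1.0–3.0, rice 1.0–2.5, wheat 1.7–3.4 leaves) with wettable powder or emulsifiable concentrate formulations diluted in water at 500 L/ha plus 0.1 vol % spreader. Growth inhibition was scored visually 17–23 days later.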

[1] = test system: soybean (Glycine max Merr.); assay: Test Example 1: foliar treatment, growth inhibition rate, soybean; format: in vivo; conditions: visually observed 17th to 23rd day after application
Summary of the method: (§2)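 Visual scoring of growth inhibition, 0% (untreated) to 100% (complete kill), on days 17–23 following post-emergence spray of formulated compound in water (500 L/ha, 0.1 vol % spreader); plants treated at set leaf stages, e.g. corn 2.0–3.5, wheat 1.7–3.4.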

barnyardgrass = assay: Test Example 2: soil application on the day after sowing, growth inhibition rate, barnyardgrass; format: in vivo, Echinochloa crus-galli L.; conditions: 250 g/ha active ingredient, observed on 19th to 24th day
Summary of the method: (§3)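 Seeds were sown in upland field soil in pots, and on the following day compounds formulated as wettable powders or emulsifiable concentrates were diluted in water (500 liter per hectare) and sprayed onto the soil at prescribed active-ingredient doses. Growth was scored visually 19–24 days later, 0 = untreated to 100% = complete kill.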

[2] = test system: velvetleaf (Abutilon theophrasti MEDIC.); assay: Test Example 1: foliar treatment, growth inhibition rate, velvetleaf; format: in vivo; conditions: visually observed 17th to 23rd day after application
Summary of the method: as §1

redroot pigweed = assay: Test Example 2: soil application on the day after sowing, growth inhibition rate, redroot pigweed; format: in vivo, Amaranthus retroflexus L.; conditions: 250 g/ha active ingredient, observed on 19th to 24th day
Summary of the method: as §3

wheat (Triticum spp.) = assay: Test Example 1: foliar treatment, growth inhibition rate, wheat; format: in vivo; conditions: visually observed 17th to 23rd day after application
Summary of the method: as §1

[3] = test system: greenfoxtail (Setaria viridis L.); assay: Test Example 1: foliar treatment, growth inhibition rate, greenfoxtail; format: in vivo; conditions: visually observed 17th to 23rd day after application
Summary of the method: as §1

wheat = assay: Test Example 2: soil application on the day after sowing, growth inhibition rate, wheat; format: in vivo, Triticum spp.; conditions: 250 g/ha active ingredient, observed on 19th to 24th day
Summary of the method: as §3

soybean = assay: Test Example 2: soil application on the day after sowing, growth inhibition rate, soybean; format: in vivo, Glycine max Merr.; conditions: 250 g/ha active ingredient, observed on 19th to 24th day
Summary of the method: as §3

prickly sida = assay: Test Example 2: soil application on the day after sowing, growth inhibition rate, prickly sida; format: in vivo, Sida spinosa L.; conditions: 250 g/ha active ingredient, observed on 19th to 24th day
Summary of the method: as §3

[4] = test system: barnyardgrass (Echinochloa crus-galli L.); assay: Test Example 1: foliar treatment, growth inhibition rate, barnyardgrass; format: in vivo; conditions: visually observed 17th to 23rd day after application
Summary of the method: as §1

[5] = test system: prickly sida (Sida spinosa L.); assay: Test Example 1: foliar treatment, growth inhibition rate, prickly sida; format: in vivo; conditions: visually observed 17th to 23rd day after application
Summary of the method: as §2

corn = assay: Test Example 2: soil application on the day after sowing, growth inhibition rate, corn; format: in vivo, Zea mays L.; conditions: 250 g/ha active ingredient, observed on 19th to 24th day
Summary of the method: as §3

crabgrass = assay: Test Example 2: soil application on the day after sowing, growth inhibition rate, crabgrass; format: in vivo, Digitaria sanguinalis L.; conditions: 250 g/ha active ingredient, observed on 19th to 24th day
Summary of the method: as §3

[6] = test system: redroot pigweed (Amaranthus retroflexus L.); assay: Test Example 1: foliar treatment, growth inhibition rate, redroot pigweed; format: in vivo; conditions: visually observed 17th to 23rd day after application
Summary of the method: as §2

corn (Zea mays L.) = assay: Test Example 1: foliar treatment, growth inhibition rate, corn; format: in vivo; conditions: visually observed 17th to 23rd day after application
Summary of the method: as §1

greenfoxtail = assay: Test Example 2: soil application on the day after sowing, growth inhibition rate, greenfoxtail; format: in vivo, Setaria viridis L.; conditions: 250 g/ha active ingredient, observed on 19th to 24th day
Summary of the method: as §3

[7] = test system: crabgrass (Digitaria sanguinalis L.); assay: Test Example 1: foliar treatment, growth inhibition rate, crabgrass; format: in vivo; conditions: visually observed 17th to 23rd day after application
Summary of the method: as §2

rice = assay: Test Example 2: soil application on the day after sowing, growth inhibition rate, rice; format: in vivo, Oryza sativa L.; conditions: 250 g/ha active ingredient, observed on 19th to 24th day
Summary of the method: as §3

velvetleaf = assay: Test Example 2: soil application on the day after sowing, growth inhibition rate, velvetleaf; format: in vivo, Abutilon theophrasti MEDIC.; conditions: 250 g/ha active ingredient, observed on 19th to 24th day
Summary of the method: as §3

SMILES | Growth inhibition rate (%) Soybean ([1]; 31 g/ha active ingredient) [%] | Growth inhibition rate (%) Prickly sida ([5]; 31 g/ha active ingredient) [%] | Growth inhibition rate (%) redroot pigweed ([6]; 31 g/ha active ingredient) [%] | Growth inhibition rate (%) Rice (rice (Oryza sativa L.); 31 g/ha active ingredient) [%] | Growth inhibition rate (%) Barnyardgrass (barnyardgrass) [%] | Growth inhibition rate (%) Velvetleaf ([2]; 31 g/ha active ingredient) [%] | Growth inhibition rate (%) redroot pigweed (redroot pigweed) [%] | Growth inhibition rate (%) Wheat (wheat (Triticum spp.); 31 g/ha active ingredient) [%] | Growth inhibition rate (%) Greenfoxtail ([3]; 31 g/ha active ingredient) [%] | Growth inhibition rate (%) Wheat (wheat) [%] | Growth inhibition rate (%) Soybean (soybean) [%] | Growth inhibition rate (%) Prickly sida (prickly sida) [%] | Growth inhibition rate (%) Barnyardgrass ([4]; 31 g/ha active ingredient) [%] | Growth inhibition rate (%) Corn (corn) [%] | Growth inhibition rate (%) Crabgrass (crabgrass) [%] | Growth inhibition rate (%) Corn (corn (Zea mays L.); 31 g/ha active ingredient) [%] | Growth inhibition rate (%) Greenfoxtail (greenfoxtail) [%] | Growth inhibition rate (%) Crabgrass ([7]; 31 g/ha active ingredient) [%] | Growth inhibition rate (%) Rice (rice) [%] | Growth inhibition rate (%) Velvetleaf (velvetleaf) [%] | other results
CCSC(=O)Oc1c(C(=O)c2ccc(S(C)(=O)=O)c(OC)c2C)cnn1C [Compound No. 35, 5-(ethylthio)carbonyloxy-1-methylpyrazol-4-yl 3-(methoxy)-2-methyl-4-(methylsulfonyl)phenyl ketone] | 90 | 40 | 90 | – | – | – | – | – | – | – | – | – | – | – | – | – | – | – | – | – | pest or weed control at 31 g/ha (rice (Oryza sativa L.); Oryza sativa, 31 g/ha active ingredient): 80%; inhibition at 250 g/ha (barnyardgrass; Echinochloa crus-galli): 90%; pest or weed control at 31 g/ha ([2]; Abutilon theophrasti, 31 g/ha active ingredient): 80%; inhibition at 250 g/ha (redroot pigweed; Amaranthus retroflexus): 95%; pest or weed control at 31 g/ha (wheat (Triticum spp.); Triticum, 31 g/ha active ingredient): 0%; pest or weed control at 31 g/ha ([3]; Setaria viridis, 31 g/ha active ingredient): 100%; inhibition at 250 g/ha (wheat; Triticum aestivum): 0%; inhibition at 250 g/ha (soybean; Glycine max): 0%; inhibition at 250 g/ha (prickly sida; Sida spinosa): 90%; pest or weed control at 31 g/ha ([4]; Echinochloa crus-galli, 31 g/ha active ingredient): 90%; inhibition at 250 g/ha (corn; Zea mays): 0%; inhibition at 250 g/ha (crabgrass; Digitaria sanguinalis): 100%; pest or weed control at 31 g/ha (corn (Zea mays L.); Zea mays, 31 g/ha active ingredient): 0%; inhibition at 250 g/ha (greenfoxtail; Setaria viridis): 70%; pest or weed control at 31 g/ha ([7]; Digitaria sanguinalis, 31 g/ha active ingredient): 80%; inhibition at 250 g/ha (rice; Oryza sativa): 90%; inhibition at 250 g/ha (velvetleaf; Abutilon theophrasti): 20%
CCn1ncc(C(=O)c2ccc(S(C)(=O)=O)c(OCCOC)c2C)c1OC(=O)SC(C)C [compound 208] | 100 | 40 | 100 | 80 | 100 | 95 | 100 | 0 | 100 | 0 | 0 | 30 | 95 | 0 | 100 | 0 | 100 | 100 | 98 | 50 | –
CCCSC(=O)Oc1c(C(=O)c2ccc(S(C)(=O)=O)c(C(=O)OC)c2C)cnn1C [compound 84] | 95 | 100 | 100 | 95 | 98 | 95 | 100 | 50 | 100 | 0 | 50 | 98 | 98 | 30 | 100 | 10 | 100 | 98 | 98 | 98 | –
CCCOC(=O)c1c(S(C)(=O)=O)ccc(C(=O)c2cnn(CC)c2OC(=O)SCC)c1Cl [compound 60] | 50 | 70 | 80 | 70 | 100 | 70 | 95 | 0 | 60 | 0 | 20 | 70 | 95 | 0 | 100 | 0 | 60 | 90 | 40 | 60 | –
CCSC(=O)Oc1c(C(=O)c2ccc(S(C)(=O)=O)c(OC)c2Cl)cnn1C [compound 214] | – | – | – | – | 100 | – | 90 | – | – | 0 | 20 | 90 | – | 0 | 100 | – | 100 | – | 100 | 90 | Growth inhibition rate (%) Rice (rice (Oryza sativa L.); 63 g/ha active ingredient): 90%; Growth inhibition rate (%) Soybean ([1]; 63 g/ha active ingredient): 100%; Growth inhibition rate (%) Velvetleaf ([2]; 63 g/ha active ingredient): 80%; Growth inhibition rate (%) Wheat (wheat (Triticum spp.); 63 g/ha active ingredient): 0%; Growth inhibition rate (%) Greenfoxtail ([3]; 63 g/ha active ingredient): 90%; Growth inhibition rate (%) Barnyardgrass ([4]; 63 g/ha active ingredient): 98%; Growth inhibition rate (%) Prickly sida ([5]; 63 g/ha active ingredient): 70%; Growth inhibition rate (%) redroot pigweed ([6]; 63 g/ha active ingredient): 100%; Growth inhibition rate (%) Corn (corn (Zea mays L.); 63 g/ha active ingredient): 0%; Growth inhibition rate (%) Crabgrass ([7]; 63 g/ha active ingredient): 95%
CCOc1c(S(C)(=O)=O)ccc(C(=O)c2cnn(CC)c2OC(=O)SCC)c1C [compound 58] | 98 | 70 | 90 | 80 | 60 | 100 | 90 | 40 | 100 | 0 | 0 | 70 | 95 | 0 | 100 | 0 | 70 | 98 | 70 | 10 | –
C=CCSC(=O)Oc1c(C(=O)c2ccc(S(C)(=O)=O)c(C(=O)OC)c2C)cnn1CC [compound 99] | 98 | 100 | 98 | 95 | 100 | 98 | 95 | 60 | 100 | 0 | 40 | 100 | 98 | 0 | 100 | 50 | 100 | 100 | 100 | 100 | –
